Values of other authors, collected in patent US8916562B2, “Methods and compositions for safe and effective treatment of telangiectasia” (Galderma Research & Development SNC, priority 2010, dated 2014).

Settings: brimonidine ophthalmic treatment, clinical trials

patients reporting hypertension, palpitations and syncope: less than 3%
SMILES: Brc1c(NC2=NCCN2)ccc2nccnc12 [brimonidine, (5-bromo-quinoxalin-6-yl)-(4,5-dihydro-1H-imidazol-2-yl)-amine]
